Laboratory results: patent US12077503B2, “Substituted cyclic amides and their use as herbicides” (FMC CORPORATION, priority 2015, dated 2024)

Experiments:
Assay type in all cases: in vivo
Kochia (Kochia scoparia) [1] = assay: Test A preemergence; details: for Plant response rating, Kochia: 125 g ai/ha, preemergence, 0 to 100 scale (0 no effect, 100 complete control); for Kochia plant response rating (0 to 100 scale): 0 is no effect, 100 is complete control
How it was run: (§1)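 In a loam soil and sand blend, planted seeds got a preemergence directed soil spray, and young plants at the one- to two-leaf stage, 2–10 cm high, got a postemergence application; ~10 d greenhouse hold; injury rated visually, 0 = none, 100 = complete control.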

[2] = test system: barnyardgrass (Echinochloa crus-galli); assay: Test A preemergence; details: for Plant response rating, Barnyardgrass: 125 g ai/ha, preemergence, 0 to 100 scale (0 no effect, 100 complete control); for Barnyardgrass plant response rating (0 to 100 scale): 0 is no effect, 100 is complete control
How it was run: as §1

[3] = test system: giant foxtail (Setaria faberii); assay: Test A preemergence; details: for Plant response rating, Foxtail, Giant: 125 g ai/ha, preemergence, 0 to 100 scale (0 no effect, 100 complete control); for Foxtail, Giant plant response rating (0 to 100 scale): 0 is no effect, 100 is complete control
How it was run: as §1

[4] = test system: pigweed (Amaranthus retroflexus); assay: Test A preemergence; details: for Plant response rating, Pigweed: 125 g ai/ha, preemergence, 0 to 100 scale (0 no effect, 100 complete control); for Pigweed plant response rating (0 to 100 scale): 0 is no effect, 100 is complete control
[5] = test system: ragweed (common ragweed, Ambrosia elatior); assay: Test A preemergence; details: for Plant response rating, Ragweed: 125 g ai/ha, preemergence, 0 to 100 scale (0 no effect, 100 complete control); for Ragweed plant response rating (0 to 100 scale): 0 is no effect, 100 is complete control
How it was run: as §1

[6] = test system: ryegrass, Italian (Italian ryegrass, Lolium multiflorum); assay: Test A preemergence; details: for Plant response rating, Ryegrass, Italian: 125 g ai/ha, preemergence, 0 to 100 scale (0 no effect, 100 complete control); for Ryegrass, Italian plant response rating (0 to 100 scale): 0 is no effect, 100 is complete control
How it was run: as §1

[7] = test system: Galium (catchweed bedstraw, Galium aparine); assay: Test A postemergence; details: postemergence; for Galium plant response rating: 125 g ai/ha, visual injury rating on 0 to 100 scale (0 no effect, 100 complete control), approx. 10 d; for Plant response rating, Galium: 500 g ai/ha, 0 to 100 scale, 0 no effect, 100 complete control
How it was run: as §1

Kochia (Kochia scoparia) [8] = assay: Test A postemergence; details: postemergence; for Kochia plant response rating: 125 g ai/ha, visual injury rating on 0 to 100 scale (0 no effect, 100 complete control), approx. 10 d; for Plant response rating, Kochia: 500 g ai/ha, 0 to 100 scale, 0 no effect, 100 complete control
How it was run: as §1

[9] = test system: barnyardgrass (Echinochloa crus-galli); assay: Test A postemergence
How it was run: as §1

[10] = test system: blackgrass (Alopecurus myosuroides); assay: Test A postemergence
How it was run: as §1

corn (Zea mays) = assay: Test A postemergence; details: postemergence; for Corn plant response rating: 125 g ai/ha, visual injury rating on 0 to 100 scale (0 no effect, 100 complete control), approx. 10 d; for Plant response rating, Corn: 500 g ai/ha, 0 to 100 scale, 0 no effect, 100 complete control
How it was run: as §1

[11] = test system: giant foxtail (Setaria faberii); assay: Test A postemergence; details: postemergence; for Foxtail, Giant plant response rating: 125 g ai/ha, visual injury rating on 0 to 100 scale (0 no effect, 100 complete control), approx. 10 d; for Plant response rating, Foxtail, Giant: 500 g ai/ha, 0 to 100 scale, 0 no effect, 100 complete control
How it was run: as §1

[12] = test system: pigweed (Amaranthus retroflexus); assay: Test A postemergence; details: postemergence; for Pigweed plant response rating: 125 g ai/ha, visual injury rating on 0 to 100 scale (0 no effect, 100 complete control), approx. 10 d; for Plant response rating, Pigweed: 500 g ai/ha, 0 to 100 scale, 0 no effect, 100 complete control
How it was run: as §1

[13] = test system: ragweed (common ragweed, Ambrosia elatior); assay: Test A postemergence; details: postemergence; for Ragweed plant response rating: 125 g ai/ha, visual injury rating on 0 to 100 scale (0 no effect, 100 complete control), approx. 10 d; for Plant response rating, Ragweed: 500 g ai/ha, 0 to 100 scale, 0 no effect, 100 complete control
How it was run: as §1

[14] = test system: ryegrass, Italian (Italian ryegrass, Lolium multiflorum); assay: Test A postemergence; details: postemergence; for Ryegrass, Italian plant response rating: 125 g ai/ha, visual injury rating on 0 to 100 scale (0 no effect, 100 complete control), approx. 10 d; for Plant response rating, Ryegrass, Italian: 500 g ai/ha, 0 to 100 scale, 0 no effect, 100 complete control
How it was run: as §1

[15] = test system: wheat (Triticum aestivum); assay: Test A postemergence; details: postemergence; for Wheat plant response rating: 125 g ai/ha, visual injury rating on 0 to 100 scale (0 no effect, 100 complete control), approx. 10 d; for Plant response rating, Wheat: 500 g ai/ha, 0 to 100 scale, 0 no effect, 100 complete control
How it was run: as §1

[16] = test system: barnyardgrass (Echinochloa crus-galli); assay: Test B flooded paddy test; details: Flood, 250 g ai/ha; 0 to 100 scale where 0 is no effect and 100 is complete control; 13 to 15 d
How it was run: (§2)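 Greenhouse paddy pots with 2-leaf stage plants received compound by direct addition to floodwater 3 cm deep, kept at that level. Scored visually at 13–15 d versus controls (0 no effect; 100 complete control).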

[17] = test system: ducksalad (Heteranthera limosa); assay: Test B flooded paddy test; details: Flood, 250 g ai/ha; 0 to 100 scale where 0 is no effect and 100 is complete control; 13 to 15 d
How it was run: as §2

rice (Oryra sativa) = assay: Test B flooded paddy test; details: Flood, 250 g ai/ha; 0 to 100 scale where 0 is no effect and 100 is complete control; 13 to 15 d
How it was run: as §2

[18] = test system: sedge, umbrella (small-flower umbrella sedge, Cyperus difformis); assay: Test B flooded paddy test; details: Flood, 250 g ai/ha; 0 to 100 scale where 0 is no effect and 100 is complete control; 13 to 15 d
How it was run: as §2

[19] = 500 g ai/ha, postemergence, 0 to 100 scale, 0 no effect, 100 complete control
[20] = Postemergence, 125 g ai/ha, visual injury, 0 to 100 scale (0 no effect, 100 complete control), approx. 10 d
[21] = Preemergence, 500 g ai/ha, visual injury approx. 10 d
[22] = 125 g ai/ha, postemergence, visual injury rating on 0 to 100 scale (0 no effect, 100 complete control), approx. 10 d

SMILES | Plant response rating, Kochia (Kochia (Kochia scoparia) [1]) | Plant response rating, Barnyardgrass [2] | Plant response rating, Foxtail, Giant [3] | Plant response rating, Pigweed [4] | Plant response rating, Ragweed [5] | Plant response rating, Ryegrass, Italian [6] | Galium plant response rating [7] | Plant response rating, Galium [7] | Kochia plant response rating (Kochia (Kochia scoparia) [8]) | Plant response rating, Kochia (Kochia (Kochia scoparia) [8]) | Plant response rating, Barnyardgrass [9, 19] | Plant response rating, Blackgrass [10, 19] | Corn plant response rating (corn (Zea mays)) | Plant response rating, Corn (corn (Zea mays)) | Foxtail, Giant plant response rating [11] | Plant response rating, Foxtail, Giant [11] | Pigweed plant response rating [12] | Plant response rating, Pigweed [12] | Ragweed plant response rating [13] | Plant response rating, Ragweed [13] | other results
CN1CC(c2cccc(OC(F)(F)C(F)F)c2)C(C(=O)Nc2cccc(F)c2F)C1=O (stereo not drawn) [Compound 392] | 50 | 90 | 90 | 70 | 70 | 40 | 70 | 70 | 50 | 70 | 90 | 70 | 70 | 80 | 90 | 90 | 60 | 70 | 50 | 20 | Kochia plant response rating (0 to 100 scale) (Kochia (Kochia scoparia) [1]; Preemergence, 500 g ai/ha): 70; Barnyardgrass plant response rating (0 to 100 scale) ([2]; Preemergence, 500 g ai/ha): 90; Foxtail, Giant plant response rating (0 to 100 scale) ([3]; Preemergence, 500 g ai/ha): 90; Pigweed plant response rating (0 to 100 scale) ([4]; Preemergence, 500 g ai/ha): 80; Ragweed plant response rating (0 to 100 scale) ([5]; Preemergence, 500 g ai/ha): 60; Ryegrass, Italian plant response rating (0 to 100 scale) ([6]; Preemergence, 500 g ai/ha): 80; Plant response rating, Barnyardgrass [9, 20]: 80; Plant response rating, Blackgrass [10, 20]: 70; Ryegrass, Italian plant response rating [14]: 50; Plant response rating, Ryegrass, Italian [14]: 80; Wheat plant response rating [15]: 20; Plant response rating, Wheat [15]: 70; Plant response rating, Barnyardgrass [16]: 60; Plant response rating, Ducksalad [17]: 90; Plant response rating, Rice (rice (Oryra sativa)): 20; Plant response rating, Sedge, Umbrella [18]: 0
CN1CC(c2ccc(C(F)(F)F)c(F)c2)C(C(=O)Nc2cccc(F)c2F)C1=O (stereo not drawn) [Compound 396] | 80 | 90 | 90 | 90 | 0 | 60 | 60 | 60 | 60 | 70 | 90 | 60 | 70 | 80 | 80 | 90 | 60 | 70 | 0 | 0 | Kochia plant response rating (0 to 100 scale) (Kochia (Kochia scoparia) [1]; Preemergence, 500 g ai/ha): 80; Barnyardgrass plant response rating (0 to 100 scale) ([2]; Preemergence, 500 g ai/ha): 90; Foxtail, Giant plant response rating (0 to 100 scale) ([3]; Preemergence, 500 g ai/ha): 90; Pigweed plant response rating (0 to 100 scale) ([4]; Preemergence, 500 g ai/ha): 90; Ragweed plant response rating (0 to 100 scale) ([5]; Preemergence, 500 g ai/ha): 20; Ryegrass, Italian plant response rating (0 to 100 scale) ([6]; Preemergence, 500 g ai/ha): 70; Plant response rating, Barnyardgrass [9, 20]: 70; Plant response rating, Blackgrass [10, 20]: 50; Ryegrass, Italian plant response rating [14]: 50; Plant response rating, Ryegrass, Italian [14]: 70; Wheat plant response rating [15]: 20; Plant response rating, Wheat [15]: 70; Plant response rating, Barnyardgrass [16]: 40; Plant response rating, Ducksalad [17]: 40; Plant response rating, Rice (rice (Oryra sativa)): 30; Plant response rating, Sedge, Umbrella [18]: 0
CN1CC(c2ccc(C(F)(F)F)c(F)c2)C(C(=O)Nc2ccccc2F)C1=O (stereo not drawn) [Compound 399] | 80 | 90 | 90 | 70 | 50 | 20 | 50 | 50 | 50 | 60 | 90 | 60 | 50 | 70 | 90 | 90 | 30 | 40 | 0 | 0 | Kochia plant response rating (0 to 100 scale, 0 is no effect, 100 is complete control) (Kochia (Kochia scoparia) [1]; [21]): 80; Barnyardgrass plant response rating (0 to 100 scale, 0 is no effect, 100 is complete control) [2, 21]: 90; Foxtail, Giant plant response rating (0 to 100 scale, 0 is no effect, 100 is complete control) [3, 21]: 90; Pigweed plant response rating (0 to 100 scale, 0 is no effect, 100 is complete control) [4, 21]: 90; Ragweed plant response rating (0 to 100 scale, 0 is no effect, 100 is complete control) [5, 21]: 50; Ryegrass, Italian plant response rating (0 to 100 scale, 0 is no effect, 100 is complete control) [6, 21]: 60; Barnyardgrass plant response rating [9, 22]: 90; Blackgrass plant response rating [10, 22]: 40; Ryegrass, Italian plant response rating [14]: 40; Plant response rating, Ryegrass, Italian [14]: 40; Wheat plant response rating [15]: 40; Plant response rating, Wheat [15]: 60; Plant response rating, Barnyardgrass [16]: 65; Plant response rating, Ducksalad [17]: 100; Plant response rating, Rice (rice (Oryra sativa)): 0; Plant response rating, Sedge, Umbrella [18]: 0
